From US7115642B2, “Substituted diphenyl isoxazoles, pyrazoles and oxadiazoles useful for treating HCV infection” (priority 2003, dated 2006)

Tests used:
[1] = tested on: HCV replicon (5-2 Luc replicon-comprising cells); assay: HCV replicon assay (luciferase); format: cell-based, Hepatitis C virus; details: 5-2 Luc replicon cells, luciferase readout; read-out: Replicon IC50
Summary of the method: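 Huh7-derived 5-2 Luc replicon cells seeded 24 h at 37 °C, then exposed to compound at various concentrations for another 24 h. Luciferase quantified by Bright-Glo luminescence; IC50 = concentration giving 50% reduction in luciferase activity; reported as +/− at a 10 μM cut-off.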

[2] = tested on: HCV nonstructural protein NS5A or NS3 in 9–13 replicon cells; assay: Quantitative Western blot assay; format: cell-based, Hepatitis C virus; details: 9–13 replicon cells, NS5A or NS3 Western blot; read-out: Western IC50
Experimental: Alternatively, the inhibitory activity of the compounds can be confirmed using a quantitative Western immunoblot assay utilizing antibodies specific for HCV non-structural proteins, such as NS3, NS4A NS5A and NS5B. In one embodiment of this assay, replicon cells are treated with varying concentrations of test compound to determine the concentration of test compound that yields a 50% reduction in the amount of a non-structural protein produced as compared to a control sample (IC50). A single non-structural protein may be quantified or multiple non-structural proteins may be quantified. Antibodies suitable for carrying out such immunoblot assays are available commercially (e.g., from BIODESIGN International, Saco, Me.).
Certain exemplary compounds of the invention were also tested for their ability to inhibit HCV replication using a quantitative Western blot analysis with antibodies specific for the HCV nonstructural protein NS5A or NS3. Actively dividing 9–13 replicon cells were seeded into Swell plates at a density of 1×10^5 cells/well in a volume of 2 ml/well and incubated at 37° C. and 5% CO2 for 24 hours. Various concentrations of test compounds (in a volume of 10 ul) were added to the wells and the cells incubated for another 48 hours. Protein samples were prepared from the cultured cells, resolved on a SDS-PAGE gel and transferred to a nitrocellulose membrane. The membrane was blocked with 5% non-fat milk in PBS for 1 hour at room temperature. Primary antibody (anti NS5A antibody; BIODESIGN International, Saco, Me. or anti NS3 antibody, Rigel) incubation was performed for 1 hour at room temperature, after which the membrane was washed 3 times (for 15 min per time) with PBST (PBS plus 0.1% Tween 20). Horseradish peroxidase conjugated secondary antibody incubation was performed for 1 hour at room temperature and the membrane was washed 3 times (for 15 min per time) with PBST. The membrane was then soaked in substrate solution (Pierce) and exposed to a film or quantified using an imager. In this assay, the amount of test compound that yielded a 50% reduction in the amount of NS5A or NS3 protein translated as compared to a control sample (IC50) was determined.
In TABLE 1, a value of “+” indicates an IC50 of 10 μM or less in the specified assay; a value of “−” indicates an IC50 of greater than 10 μM in the specified assay.

| Compound | IC50 [1] [µM] | IC50 [2] [µM] |
| --- | --- | --- |
| O=C(Nc1cccc(-c2cc(-c3c(F)cccc3S(=O)(=O)N3CCOCC3)no2)c1)C(Cl)Cl [Compound 21, 2,2-Dichloro-N-[3-[3-[2-fluoro-(6-N-morpholinosulfamoyl)phenyl]-5-isoxazolyl]-phenyl]Acetamide] | < 10 | < 10 |
| O=C(Nc1cccc(-c2cc(-c3c(N4CCOCC4)cccc3C(F)(F)F)no2)c1)C(Cl)Cl [Compound 37, 2,2-Dichloro-N-[3-[3-[2-(N-morpholino)-6-trifluoromethylphenyl)-5-isoxazolyl]phenyl]Acetamide] | < 10 | < 10 |
| O=C(Nc1cccc(-c2cc(-c3c(Cl)cc(OCCN4CCOCC4)cc3Cl)no2)c1)C(Cl)Cl [Compound 75, 2,2-Dichloro-N-[3-[3-[2,6-dichloro 4-(N-morpholinoethyleneoxy)phenyl]-5-isoxazolyl]-phenyl]Acetamide] | > 10 | < 10 |
| Cc1ccc(C(=O)N2CCN(c3cccc(Cl)c3-c3cc(-c4cccc(NC(=O)C(Cl)Cl)c4)on3)CC2)cc1 [Compound 665] | < 10 | < 10 |
| CC(C)(C)OC(=O)NC1CCN(c2cccc(Cl)c2-c2cc(-c3cccc(NC(=O)C(Cl)Cl)c3)on2)C1 (centres unmarked) [Compound 671] | < 10 | < 10 |
| CC(C)(C)OC(=O)NC1CCN(c2cccc(Cl)c2-c2cc(-c3cccc(NC(=O)C(Cl)Cl)c3)on2)C1 (centres unmarked) [Compound 672] | < 10 | < 10 |
| NC1CCN(c2cccc(Cl)c2-c2cc(-c3cccc(NC(=O)C(Cl)Cl)c3)on2)C1 (centres unmarked) [Compound 674] | < 10 | < 10 |
| CN(C)C(=O)NC1CCN(c2cccc(Cl)c2-c2cc(-c3cccc(NC(=O)C(Cl)Cl)c3)on2)C1 (centres unmarked) [Compound 676] | < 10 | < 10 |
| COC(=O)c1cccc(Cl)c1-c1cc(-c2cccc(NC(=O)C(Cl)Cl)c2)on1 [Compound 680] | < 10 | < 10 |
| O=C(Nc1cccc(-c2cc(-c3c(Cl)cccc3C(=O)N3CCN(c4ccccc4)CC3)no2)c1)C(Cl)Cl [Compound 690] | < 10 | < 10 |
| CN(C)C(=O)c1cccc(Cl)c1-c1cc(-c2cccc(NC(=O)C(Cl)Cl)c2)on1 [Compound 692] | < 10 | < 10 |
| O=C(NCc1ccccn1)c1cccc(Cl)c1-c1cc(-c2cccc(NC(=O)C(Cl)Cl)c2)on1 [Compound 694] | < 10 | < 10 |
| COC(=O)[C@@H](NC(=O)c1cccc(Cl)c1-c1cc(-c2cccc(NC(=O)C(Cl)Cl)c2)on1)C(C)C [Compound 695] | > 10 | < 10 |
| COC(=O)C(NC(=O)c1cccc(Cl)c1-c1cc(-c2cccc(NC(=O)C(Cl)Cl)c2)on1)C(C)C (centres unmarked) [Compound 696] | < 10 | < 10 |
| O=C(Nc1cccc(-c2cc(-c3c(Cl)cccc3C(=O)N3CCN(Cc4ccccc4)CC3)no2)c1)C(Cl)Cl [Compound 697] | > 10 | < 10 |
| CC(C)(C)OC(=O)N1CCN(C(=O)c2cccc(Cl)c2-c2cc(-c3cccc(NC(=O)C(Cl)Cl)c3)on2)CC1 [Compound 698] | > 10 | < 10 |
| O=C(Nc1cccc(-c2cc(-c3c(Cl)cccc3OC3CCCC3)no2)c1)C(Cl)Cl [Compound 699] | < 10 | < 10 |
| COc1cccc(C(=O)OC(C)(C)C)c1-c1cc(-c2cccc(NC(=O)C(Cl)Cl)c2)on1 [Compound 700] | < 10 | > 10 |
| CC(C)(C)OC(=O)c1cccc(F)c1-c1cc(-c2cccc(NC(=O)C(Cl)Cl)c2)on1 [Compound 701] | < 10 | < 10 |
| COc1cccc(C(=O)O)c1-c1cc(-c2cccc(NC(=O)C(Cl)Cl)c2)on1 [Compound 702] | > 10 | < 10 |
| O=C(O)c1cccc(F)c1-c1cc(-c2cccc(NC(=O)C(Cl)Cl)c2)on1 [Compound 703] | > 10 | > 10 |
| COC(=O)c1cccc(OC)c1-c1cc(-c2cccc(NC(=O)C(Cl)Cl)c2)on1 [Compound 704] | > 10 | > 10 |
